The target in this assay is T1, farnesyltransferase (Rattus norvegicus, UniProt Q02293+Q04631).
T1 construct: The enzyme can be purified according to Cell, 62: 81-88 (1990), utilizing steps one, two, and three; from tissue; host or cells: rat brain
The assay can be described thus: Inhibition of farnesyltransferase (3H-farnesyldiphosphate / H-Ras filter assay). The note with it: 37° C., 30 minutes; for inhibition at 0.1 µM: test compound 10^−7M. Format: biochemical. An excerpt: The ability of the compounds of the present invention to inhibit farnesyltransferase can be measured according to the method described in J. Biol. Chem., 266: 14603 (1991) or J. Biol. Chem., 270:660-664 (1995). Procedures for determination of the inhibition of farnesylation of the oncogene protein Ras are described in J. Biol. Chem., 266:15575-15578 (1991) and U.S. Pat. No. 5,245,061. Inhibition of rat brain farnesyltransferase can also be measured in vitro using an Amersham Life Science commercial scintillation proximity assay kit and substituting a biotin-K Ras B fragment (0.1 μM final concentration) for the biotin-lamin substrate provided by Amersham. The enzyme can be purified according to Cell, 62: 81-88 (1990), utilizing steps one, two, and three. […] The percent inhibition of the farnesylation caused by the compounds of the present invention (at 10^−6 M) compared to an uninhibited control sample can be evaluated in the same Amersham test system.
The mixture was brought to 37° C., treated with enzyme, incubated for 30 minutes, treated with 1 M HCl/ethanol (1 mL) to stop the reaction, stirred for 15 minutes at room temperature, diluted with ethanol (2 mL), filtered through a 2.5 cm glass microfiber filter (Whatman) with ethanol rinses (4×2 mL). The glass filter was transferred to a scintillation vial and treated with scintillation fluid (5 mL). The radioisotope retained on the glass fiber filter was counted and reflected the activity of the enzyme.

Where only a bound is given, the exact number is not on record here.

T1 sequence (Q02293 whole entry, one chain of several): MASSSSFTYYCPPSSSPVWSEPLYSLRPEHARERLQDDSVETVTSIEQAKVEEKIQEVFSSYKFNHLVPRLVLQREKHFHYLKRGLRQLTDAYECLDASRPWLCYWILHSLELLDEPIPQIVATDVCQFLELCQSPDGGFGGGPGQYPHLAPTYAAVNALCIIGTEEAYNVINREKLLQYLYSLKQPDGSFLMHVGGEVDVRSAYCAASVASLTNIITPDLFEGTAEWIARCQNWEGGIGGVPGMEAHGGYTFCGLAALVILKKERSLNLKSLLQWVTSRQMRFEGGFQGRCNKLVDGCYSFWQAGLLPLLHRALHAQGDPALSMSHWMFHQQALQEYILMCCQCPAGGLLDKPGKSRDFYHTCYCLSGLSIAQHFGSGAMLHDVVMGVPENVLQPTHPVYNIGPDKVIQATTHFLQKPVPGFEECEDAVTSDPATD

In the case of `Cn1cncc1C(OCc1ccc(Cl)cc1-c1ccccc1)c1ccc(C#N)cc1` (stereo not drawn) [Example 2, 4-(((5-chloro(1,1′-biphenyl)-2-yl)methoxy)(1-methyl-1H-imidazol-5-yl)methyl)benzonitrile], the inhibition at 0.1 µM was more than 66%.
For the compound `Cn1cncc1C(OCc1c(-c2cccc(Cl)c2)cc(C#N)c(=O)n1C)c1ccc(Cl)cc1` (stereo not drawn) [Example 43, 5-(3-chlorophenyl)-6-(((4-chlorophenyl)(1-methyl-1H-imidazol-5-yl)methoxy)methyl)-1-methyl-2-oxo-1,2-dihydro-3-pyridinecarbonitrile], the inhibition at 0.1 µM was more than 81%.
Turning to `COc1cccc(-c2cc(C#N)ccc2OCC(F)(c2ccc(C#N)cc2)c2cncn2C)c1` (stereo not drawn) [Example 58, 6-(2-(4-cyanophenyl)-2-fluoro-2-(1-methyl-1H-imidazol-5-yl)ethoxy)-3′-methoxy-1,1′-biphenyl-3-carbonitrile], the inhibition at 0.01 µM (test compound 10^−8M) came to 96%.

For orientation: inhibition means the percentage by which the read-out fell short of the control.

The values above are taken from patent publication US7323570B2, “Farnesyltransferase inhibitors” (Abbott Laboratories, priority 2000, dated 2008).
